In patent US20120114588A1, “IBAT INHIBITORS FOR TREATMENT OF METABOLIC DISORDERS AND RELATED CONDITIONS” (ALBIREO AB, priority 2010, published 2012):

Assays:
[1] = molecular target: T1, Ileal Bile Acid Transporter Human (Homo sapiens, UniProt Q12908); experiment: ISBT Hu HEK Uptake SPA: Human HEK Glycocholic acid Uptake Radiometric SPA; type: cell-based; settings: human IBAT in HEK cells
T1 construct: expressed in transfected cells; host or cells: HEK
T1 sequence (Q12908 1-348): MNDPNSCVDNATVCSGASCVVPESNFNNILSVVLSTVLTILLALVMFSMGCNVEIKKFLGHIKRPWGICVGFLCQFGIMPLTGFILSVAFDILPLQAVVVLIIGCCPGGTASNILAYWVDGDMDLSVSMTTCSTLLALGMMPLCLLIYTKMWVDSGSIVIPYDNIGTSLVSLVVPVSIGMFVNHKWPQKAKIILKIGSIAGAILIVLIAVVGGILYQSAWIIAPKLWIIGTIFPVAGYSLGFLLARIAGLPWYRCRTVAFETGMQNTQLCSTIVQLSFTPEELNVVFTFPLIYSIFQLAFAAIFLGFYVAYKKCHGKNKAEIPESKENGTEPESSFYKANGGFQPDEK
Experimental: ISBT Hu HEK Uptake SPA 13203 IBAT HUM Ileal Bile Acid Transporter Human HEK Glycocholic acid Uptake Radiometric—SPA Inhibitor IC50 Mean IC50 (nM) was determined for the compounds of examples 1-14

Slc10a2 protein = molecular target: T2, Slc10a2 protein (Mus musculus, UniProt P70172); experiment: ob/ob mice gavaged with Slc10a2 inhibitor for 11 days: plasma, liver and distal ileum analyses; type: in vivo
T2 construct: from tissue; host or cells: living male ob/ob mice (Taconic), ileum in vivo
T2 sequence (P70172 1-348): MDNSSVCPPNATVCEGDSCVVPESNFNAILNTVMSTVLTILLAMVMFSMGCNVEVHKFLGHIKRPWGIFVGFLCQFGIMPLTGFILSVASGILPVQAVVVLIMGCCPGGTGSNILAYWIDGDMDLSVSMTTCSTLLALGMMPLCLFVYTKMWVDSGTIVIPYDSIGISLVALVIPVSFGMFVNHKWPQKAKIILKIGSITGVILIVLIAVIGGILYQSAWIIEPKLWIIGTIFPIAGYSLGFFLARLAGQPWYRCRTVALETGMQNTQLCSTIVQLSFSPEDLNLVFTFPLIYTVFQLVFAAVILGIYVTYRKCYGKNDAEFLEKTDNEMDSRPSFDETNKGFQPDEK
Text: A diet enriched in sucrose (D12329, Research Diets, NJ) together with drinking water supplemented with 10% fructose was used for the high carbohydrate experiment. Animals had free access to the diet for two weeks. Control animals received standard mouse chow and tap water. Male ob/ob animals were from Taconic, DK. Ob/ob animals were gavaged with a specific Slc10a2 inhibitor Example 14 or a control vehicle for 11 days. Animals had free access to food and water. All animal care and experiments were conducted in accordance with accepted standards of humane animal care and approved by the Ethics Committee of Goteborg University.
Blood was centrifuged, and plasma was analyzed for total cholesterol and TGs using the IL TestTM cholesterol 181618-10 and TG 181610-60 kits on the Monarch 2000 system (IL Scandinavia, Gothenburg, Sweden). Lipoprotein cholesterol profiles were obtained by separation of […] of plasma using a micro fast protein liquid chromatography (FPLC) system for the generation of lipoprotein profiles (15). Plasma insulin levels were analyzed using a rodent insulin RIA kit (Linco, St. Charles, Mich.). Total plasma glucose was analyzed using the IL Test (IL Scandinavia, Gothenburg, Sweden) on the Monark 2000 system. Blood glucose was determined using a Bayer Elite glucometer (Bayer diagnostics, Germany). Plasma free fatty acids were analyzed employing a commercial 3 NEFA kit (Wako Chemicals
Total RNA was extracted from frozen livers or distal ileum with TRIzol reagent (Invitrogen, Carlsbad, Calif.). The RNA was DNase-treated with RQ1 Dnase (Promega, Madison, Wis.). cDNA synthesis and quantitative real time PCR was performed employing HPRT as endogenous control (18). Primer and probe information are available upon request.
A ligand blot employing ^125I-labeled rabbit β-VLDL was used to detect LDL receptors in liver as described (19). Hepatic SR-BI was assayed by immunoblot using a rodent specific rabbit polyclonal antibody (Novus Biologicals Inc., Littleton, Colo.), as described (20). Cyp7a1 protein levels were assayed in liver microsomal protein samples by immunoblot using a rabbit polyclonal antibody directed against the C-terminus of the CYP7A1 (18). To detect SREBP1 protein, cytoplasmic and nuclear protein preparations from liver were performed using the NE—PER reagent (Pierce), including Complete protease inhibitor (Roche), 1 mM phenyl-methylsulfonyl fluoride, 0.5 mM leupeptin, 5 μg/ml Calpain inhibitor I (Biomol, Pa.), following the manufacturer's instructions. 50 μg and 25 μg of cytoplasmic and nuclear liver protein fractions, respectively, were electrophoresed on NuPage Bis-Tris gels (Invitrogen) and transferred to nitrocellulose membranes. Membranes were blocked in 5% skimmed milk powder and incubated with a mouse monoclonal antibody raised against the N′-terminus of SREBP1 (Labvision Corporation, Calif.) at 1.5 μg/mL in 5% skimmed milk powder for two hours at room temperature. An HRP conjugated goat anti-mouse F(ab)2 antibody (Pierce) was used for detection of specific signals together with Supersignal reagent (Pierce) and a Fuji BAS 1800 analyzer (Fuji Photo Film Co.). To analyze phosphorylated liver proteins by western blot, total liver protein homogenates were prepared from frozen tissue by homogenization using a polytron followed by sonication in a buffer containing 20 mM Tris-Hcl, pH 7,4, 1% Triton X-100, 10% Glycerol, 150 mM NaCl, 2 mM EDTA, 25 mM betaglycerophosphate, 20 mM sodium floride, 1 mM sodium orthovanadate, 2 mM sodium pyrophosphate, 1 mM benzamidine, 1 mM phenyl-methylsulfonyl fluoride, 0.5 mM leupeptin, Complete proteinase inhibitor (Roche), and then centrifuged at 14 000 rpm in a microcentrifuge, and the supernatant was recovered. 50 μg protein was loaded on NuPage Bis-Tris gels (Invitrogen) and transferred to nitrocellulose membranes. […]

[2] = Phase IIb placebo-controlled study in patients with Chronic Idiopathic Constipation: plasma glucose; type: in vivo, human (patients); settings: for Glucose concentration, Baseline, Mean ± SD: 10 mg group
Text: In a Phase Ilb, Double-blind, Randomised, Placebo-controlled, Multi-centre, Dose-finding,
Efficacy and Safety of a Range of Doses of the substance according to Example 14 in Patients with Chronic Idiopathic Constipation in addition also have glucose values above Upper limit of normal (ULN), treated for 56 days. The patient was a male or non-pregnant female 20 years of age and 80 years of age with body mass index (BMI) 18.5 but <35.
p-values were obtained from an analysis of covariance with treatment group, demographic group and treatment-by-demographic group as fixed factors and baseline value as a covariate in the model. No adjustment for multiple comparisons was made.

[3] = western blot with phosphospecific antibodies

CCCCC1(CCCC)CN(c2ccccc2)c2cc(SC)c(OCC(=O)N[C@@H](C(=O)NCC(=O)O)c3ccccc3)cc2S(=O)(=O)N1 [Example 1, 1,1-Dioxo-3,3-dibutyl-5-phenyl-7-methylthio-8-(N-{(R)-α-[N-(carboxymethyl)carbamoyl]benzyl}carbamovlmethoxv)-2,3,4,5-tetrahvdro-1. 2. 5-benzothiadiazepine]
IC50 [1]: 0.45 nM

CCCCC1(CCCC)CN(c2ccccc2)c2cc(SC)c(OCC(=O)N[C@@H](C(=O)N[C@@H](C)C(=O)O)c3ccccc3)cc2S(=O)(=O)C1 [Example 2, 1,1-Dioxo-3,3-dibutyl-5-phenyl-7-methylthio-8-(N-{(R)-α-[N′-((S)-1-carboxyethyl)carbamoyl]benzyl}carbamoylmethoxy)-2,3,4,5-tetrahydro-1,5-benzothiazepine]
IC50 [1]: 0.39 nM

CCCCC1(CCCC)CN(c2ccccc2)c2cc(SC)c(OCC(=O)N[C@@H](C(=O)N[C@@H](CC)C(=O)O)c3ccccc3)cc2S(=O)(=O)N1 [Example 3, 1,1-Dioxo-3,3-dibutyl-5-phenyl-7-methylthio-8-(N-{(R)-α-[N-((S)-1-carboxypropyl)carbamoyl]benzyl}carbamoylmethoxy)-2,3,4,5-tetrahydro-1,2,5-benzothiadiazepine]
IC50 [1]: 0.18 nM

CCCCC1(CCCC)CN(c2ccccc2)c2cc(SC)c(OCC(=O)N[C@@H](C(=O)N[C@@H](CSC)C(=O)O)c3ccccc3)cc2S(=O)(=O)N1 [Example 4, 1,1-Dioxo-3,3-dibutyl-5-phenyl-7-methylthio-8-(N-{(R)-α-[N-((R)-1-carboxy-2-methylthioethyl)carbamoyl]benzyl}carbamoylmethoxy)-2,3,4,5-tetrahydro-1,2,5-benzothiadiazepine]
IC50 [1]: 0.35 nM

CCCCC1(CCCC)CN(c2ccccc2)c2cc(SC)c(OCC(=O)N[C@@H](C(=O)N[C@@H](CC)C(=O)O)c3ccc(O)cc3)cc2S(=O)(=O)N1 [Example 5, 1,1-Dioxo-3,3-dibutyl-5-phenyl-7-methylthio-8-(N-{(R)-α-[N-((S)-1-carboxypropyl)carbamoyl]-4-hydroxybenzyl}carbamoylmethoxy)-2,3,4,5-tetrahydro-1,2,5-benzothiadiazepine]
IC50 [1]: 0.16 nM

CCCCC1(CCCC)CN(c2ccccc2)c2cc(SC)c(OCC(=O)N[C@@H](C(=O)N[C@H](C(=O)O)C(C)C)c3ccccc3)cc2S(=O)(=O)N1 [Example 7, 1,1-Dioxo-3,3-dibutyl-5-phenyl-7-methylthio-8-(N-{(R)-α-[N-((S)-1-carboxy-2-methylpropyl)carbamoyl]benzyl}carbamoylmethoxy)-2,3,4,5-tetrahydro-1,2,5-benzothiadiazepine]
IC50 [1]: 0.36 nM

CCCCC1(CCCC)CN(c2ccccc2)c2cc(SC)c(OCC(=O)N[C@@H](C(=O)N[C@H](C(=O)O)[C@@H](C)O)c3ccc(O)cc3)cc2S(=O)(=O)N1 [Example 8, 1,1-Dioxo-3,3-dibutyl-5-phenyl-7-methylthio-8-(N-{(R)-α-[N-((S)-1-carboxy-2-(R)-hydroxypropyl)carbamoyl]-4-hydroxybenzyl}carbamoylmethoxy)-2,3,4,5-tetrahydro-1,2,5-benzothiadiazepine]
IC50 [1]: 0.11 nM

CCCCC1(CCCC)CN(c2ccccc2)c2cc(SC)c(OCC(=O)N[C@@H](C(=O)N[C@@H](C)C(=O)O)c3ccccc3)cc2S(=O)(=O)N1 [Example 10, 1,1-Dioxo-3,3-dibutyl-5-phenyl-7-methylthio-8-(N-{(R)-α-[N-((S)-1-carboxyethyl)carbamoyl]benzyl}carbamoylmethoxy)-2,3,4,5-tetrahydro-1,2,5-benzothiadiazepine]
IC50 [1]: 0.2 nM

CCCCC1(CCCC)CN(c2ccccc2)c2cc(SC)c(OCC(=O)N[C@@H](C(=O)N[C@@H](C)C(=O)O)c3ccc(O)cc3)cc2S(=O)(=O)N1 [Example 12]
IC50 [1]: 0.3 nM

CCCCC1(CCCC)CN(c2ccccc2)c2cc(SC)c(OCC(=O)N[C@@H](C(=O)NCC(=O)O)c3ccccc3)cc2S(=O)(=O)C1 [Example 14, 1,1-Dioxo-3,3-dibutyl-5-phenyl-7-methylthio-8-(N-{ (R)-1′-phenyl-1′-[N′-(carboxymethyl)carbamoyl]methyl}carbamoylmethoxy)-2,3,4,5-tetrahydro-1,5-benzothiazepine]
IC50 [1]: 1.2 nM
Total plasma TG levels reduced (Slc10a2 protein; 11 days treatment): 73%
Fasting levels of glucose reduced vs vehicle (Slc10a2 protein; 11 days treatment, blood glucose): 30%
Fasting insulin levels reduced (Slc10a2 protein; 11 days treatment, plasma): 50%
Total plasma cholesterol increased (Slc10a2 protein; 11 days treatment, tendency): 16%
FGF15 mRNA level (Slc10a2 protein; 11 days, distal ileum): significantly reduced
FXR gene expression (Slc10a2 protein; 11 days, distal ileum): unaltered
IBABP mRNA level (Slc10a2 protein; 11 days, distal ileum): significantly reduced
SHP mRNA level (Slc10a2 protein; 11 days, distal ileum): significantly reduced
Hepatic G6Pase expression (Slc10a2 protein; 11 days, liver): reduced
Hepatic GK mRNA level (Slc10a2 protein; 11 days, liver): increased
Hepatic LPK mRNA reduced (Slc10a2 protein; 11 days, liver): 30%
Hepatic PEPCK expression (Slc10a2 protein; 11 days, liver): reduced
Hepatic SREBP1c mRNA levels (Slc10a2 protein; 11 days, liver): markedly reduced
Hepatic cholesterol and TG content (Slc10a2 protein; 11 days, liver, vs control): no difference
Hepatic ACC mRNA level decreased (Slc10a2 protein; 11 days, liver, vs vehicle): 50%
Hepatic FAS mRNA level decreased (Slc10a2 protein; 11 days, liver, vs vehicle): 80%
Hepatic SCD1 mRNA level (Slc10a2 protein; 11 days, liver, vs vehicle): not significantly altered
Hepatic mRNA expression of FGF21 (Slc10a2 protein; 11 days, liver, vs vehicle): doubled
Hepatic mRNA level of CYP7A1 (Slc10a2 protein; 11 days, liver, vs vehicle): increased
Akt serine 473 phosphorylation in liver lysates (Slc10a2 protein; [3]): reduced
Mek1/2-Erk1/2 pathway activation in liver (Slc10a2 protein; [3]): reduced activation
Glucose concentration, Baseline, Mean ± SD ([2]; patients with glucose >ULN, n=4, before treatment): 129.8 ± 7.4 mg/dL
Glucose concentration, End of Treatment, Mean ± SD ([2]; patients with glucose >ULN, 10 mg, 56 days, n=4): 82 ± 10.23 mg/dL
Glucose concentration % change baseline to end of treatment ([2]; patients with glucose >ULN, 10 mg, 56 days, p 0.013 vs placebo): −36.9%
Reduction of glucose concentration, baseline vs end of treatment ([2]; patients with glucose higher than ULN, 10 mg, 56 days): 36%
Change of glucose concentration, baseline vs end of treatment ([2]; patients with glucose lower or equal to ULN): did not show any significant change
Glucose concentration, Baseline, Mean ± SD ([2]; patients with glucose ≦ULN, n=25, before treatment): 91.3 ± 7.52 mg/dL
Glucose concentration, End of Treatment, Mean ± SD ([2]; patients with glucose ≦ULN, 10 mg, 56 days, n=25): 90.6 ± 12.96 mg/dL
Glucose concentration % change baseline to end of treatment ([2]; patients with glucose ≦ULN, 10 mg, 56 days, p 0.653 vs placebo): −1%
